The source of these data is article PMC8537953 (Viruses, 2021).

Read-outs that look alike come from different tables or passages of the source.

For data set [1] the following is noted: cited from earlier work.
The conditions of data set [2]: human, in vivo, cited from earlier work.
The nature of the next data set: in vitro. The settings on record: human.
Another data set relates to influenza A. The settings on record: read-out: in vitro EC50 (influenza A); cited from earlier work.
Data set [3] relates to SARS-CoV-2. The settings on record: read-out: EC50 against SARS-CoV-2; cited from earlier work.
Data set [4] concerns SARS-CoV-2. Kind of data set: microbe, parasite or virus in culture. The class given is cell-based. The settings on record: Severe acute respiratory syndrome coronavirus 2, Vero C1008, 6 h, read-out: % inhibition of SARS-CoV-2 infection, post-entry treatment.

For `NC12CC3CC(CC(C3)C1)C2` [Amantadine, amantadine], in data set [1] (plasma), the “PPB, plasma protein binding, % of compound bound to plasma proteins” value was 67%. Also, the Cmax in data set [2] (200 mg) is 2.7 µM. This molecule had a viability in the data set “in vitro” of over 50%. The EC50 in the data set on influenza A was 16 µM.

As for `CC12CC3CC(C)(C1)CC(N)(C3)C2` [Memantine, memantine], in data set [1] (ref FDA reports), the “PPB, plasma protein binding, % of compound bound to plasma proteins” value is recorded as 45%.

For `CCC(CC)COC(=O)[C@H](C)N[P@](=O)(OC[C@H]1O[C@@](C#N)(c2ccc3c(N)ncnn23)[C@H](O)[C@@H]1O)Oc1ccccc1` [Remdesivir, remdesivir], the EC50 in the data set on SARS-CoV-2 [3] is 2.5 µM.

As to `CC(N)C12CC3CC(CC(C3)C1)C2` (centres unmarked) [Rimantadine, rimantadine], in the data set on SARS-CoV-2 [4], the inhibition at 230 µM is over 99%. In data set [2], the Cmax is 2.2 µM.

Usually Cmax stands for the peak of the concentration-time curve. Usually viability stands for a read-out of living cells in per cent, often relative to untreated cells. Broadly, the EC50 is the concentration needed to bring the measured effect to its halfway point. As a reminder, the inhibition is the relative decrease from the control value, in per cent.
